Data reported in patent publication US20070128217A1 (priority 2003, published 2007).

Tests used:
[1] = test system: antibodies in sera from SARS patients (sera 1a, 1b, 2, 6, 37, 62, London, SARS-yellow, SARS-green); assay type: binding, human; design: Binding of serum 6 to linear peptides of protein X1 of SARS-CoV Urbani / Binding of serum 37 to linear peptides of protein X1 of SARS-CoV Urbani / Binding of serum 6 to looped/cyclic peptide (PEPSCAN-ELISA) / Binding of serum 37 to looped/cyclic peptide (PEPSCAN-ELISA) / Binding of serum 37 to looped/cyclic peptides of protein X1 of SARS-CoV Urbani / Binding of serum 6 to linear peptides of protein X2 / Binding of serum 37 to linear peptides of protein X2 / Binding of serum 37 to looped/cyclic peptides of protein X2 of SARS-CoV Urbani / Binding of serum 6 to linear peptides of protein M of SARS-CoV Urbani / Binding of serum 37 to linear peptides of protein M of SARS-CoV Urbani / Binding of serum 6 to looped/cyclic peptides of protein M of SARS-CoV Urbani / Binding of serum 37 to looped/cyclic peptides of protein M of SARS-CoV Urbani / Binding of serum 6 to linear peptides of protein X3 of SARS-CoV Urbani / Binding of serum 37 to linear peptides of protein X3 of SARS-CoV Urbani / Binding of serum 37 to looped/cyclic peptides of protein X3 of SARS-CoV Urbani / Binding of serum 6 to linear peptides of protein X4 of SARS-CoV Urbani / Binding of serum 37 to linear peptides of protein X4 of SARS-CoV Urbani / Binding of serum 37 to looped/cyclic peptides of protein X4 of SARS-CoV Urbani / Binding of serum 6 to linear peptides of protein X5 of SARS-CoV Urbani / Binding of serum 37 to linear peptides of protein X5 of SARS-CoV Urbani / Binding of serum 37 to looped/cyclic peptides of protein X5 of SARS-CoV Urbani / Binding of serum 6 to linear peptides of protein N of SARS-CoV Urbani / Binding of serum 37 to linear peptides of protein N of SARS-CoV Urbani / Binding of serum 6 to linear peptide (PEPSCAN-ELISA) / Binding of serum 1a to looped/cyclic peptides of protein N of SARS-CoV Urbani / Binding of serum 1b to looped/cyclic peptides of protein N of SARS-CoV Urbani / Binding of serum 2 to looped/cyclic peptides of protein N of SARS-CoV Urbani / Binding of serum 6 to looped/cyclic peptides of protein N of SARS-CoV Urbani / Binding of serum 37 to looped/cyclic peptides of protein N of SARS-CoV Urbani / Binding of serum 62 to looped/cyclic peptides of protein N of SARS-CoV Urbani / Binding of serum London to looped/cyclic peptides of protein N of SARS-CoV Urbani / Binding of serum SARS-green to looped/cyclic peptides of protein N of SARS-CoV Urbani: unit not given here
[2] = test system: control sera (pooled serum of ten healthy LUMC hospital workers; commercial negative donor pooled serum from the Dutch bloodbank); assay type: binding, human; design: Binding of Control serum LUMC to linear peptides / Binding of Control serum Blood-bank to linear peptides / Binding of Control serum LUMC to looped peptides / Binding of Control Serum Blood-Bank to Looped peptides / Binding of Control serum LUMC to linear peptides of the protein M of SARS-CoV Urbani / Binding of Control serum Blood-bank to linear peptides of the protein M of SARS-CoV Urbani / Binding of Control serum LUMC to looped peptides of the protein M of SARS-CoV Urbani / Binding of Control Serum Blood-Bank to Looped peptides of the protein M of SARS-CoV Urbani: unit not given here
[3] = test system: rabbit serum obtained by immunizing a rabbit with the SARS-CoV strain Frankfurt 1; assay type: binding; design: Binding of a rabbit serum to linear peptides / Binding of a rabbit serum to looped peptides / Rabbit serum linear peptides / Rabbit serum looped peptides / Binding of a rabbit serum to linear peptides of protein N of SARS-CoV Urbani (Rabbit serum linear peptides) / Binding of a rabbit serum to looped/cyclic peptides of protein N of SARS-CoV Urbani (Rabbit serum looped peptides): unit not given here
[4] = test system: recombinant human anti-SARS-CoV antibody 03-018; assay type: binding; design: Binding of antibody 03-018 to linear peptides of the N protein of SARS-CoV Urbani / Binding of antibody 03-018 to looped/cyclic peptides of the N protein of SARS-CoV Urbani: unit not given here

Sequence | Binding of serum 1a to linear peptides of protein N of SARS-CoV Urbani [1] | Binding of serum 1a to looped/cyclic peptides of protein N of SARS-CoV Urbani [1] | Binding of serum 1b to linear peptides of protein N of SARS-CoV Urbani [1] | Binding of serum 1b to looped/cyclic peptides of protein N of SARS-CoV Urbani [1] | Binding of serum 2 to linear peptides of protein N of SARS-CoV Urbani [1] | Binding of serum 2 to looped/cyclic peptides of protein N of SARS-CoV Urbani [1] | Binding of serum 6 to linear peptides of protein N of SARS-CoV Urbani [1] | Binding of serum 6 to looped/cyclic peptides of protein N of SARS-CoV Urbani [1] | Binding of serum 37 to linear peptides of protein N of SARS-CoV Urbani [1] | Binding of serum 37 to looped/cyclic peptides of protein N of SARS-CoV Urbani [1] | Binding of serum 62 to linear peptides of protein N of SARS-CoV Urbani [1] | Binding of serum 62 to looped/cyclic peptides of protein N of SARS-CoV Urbani [1] | Binding of serum London to linear peptides of protein N of SARS-CoV Urbani [1] | Binding of serum London to looped/cyclic peptides of protein N of SARS-CoV Urbani [1] | Binding of serum SARS-green to linear peptides of protein N of SARS-CoV Urbani [1] | Binding of serum SARS-yellow to linear peptides of protein N of SARS-CoV Urbani [1] | Binding of a rabbit serum to linear peptides of protein N of SARS-CoV Urbani (Rabbit serum linear peptides) [3] | Binding of a rabbit serum to looped/cyclic peptides of protein N of SARS-CoV Urbani (Rabbit serum looped peptides) [3] | Binding of antibody 03-018 to linear peptides of the N protein of SARS-CoV Urbani [4] | Binding of antibody 03-018 to looped/cyclic peptides of the N protein of SARS-CoV Urbani [4] | other results
SGTWLTYHGAIKLDD | 0.2 | 0.8 | 0.1 | 0.5 | 0.1 | 0.7 | 0.1 | 0.4 | 0.7 | 1.0 | 0.5 | 1.2 | 0.6 | 0.8 | 0.5 | 0.6 | 0.1 | 0.5 | 0.1 | 0.2 | Binding of serum SARS-green to looped/cyclic peptides of protein N of SARS-CoV Urbani [1]: 1.8; Binding of serum SARS-yellow to looped/cyclic peptides of protein N of SARS-CoV Urbani [1]: 1.6; Control Serum Blood-Bank Looped peptides [2]: 1.0; Control serum Blood-bank linear peptides [2]: 0.5; Control serum LUMC linear peptides [2]: 0.5; Control serum LUMC looped peptides [2]: 0.8
YFYYLGTGPEASLPY | 0.3 | 0.4 | 0.1 | 0.3 | 0.3 | 0.5 | 0.2 | 0.3 | 0.7 | 0.9 | 0.8 | 0.7 | 0.4 | 0.4 | 0.0 | 0.7 | 0.1 | 0.6 | 0.1 | 0.2 | Binding of serum SARS-green to looped/cyclic peptides of protein N of SARS-CoV Urbani [1]: 0.4; Binding of serum SARS-yellow to looped/cyclic peptides of protein N of SARS-CoV Urbani [1]: 0.6; Binding of Control Serum Blood-Bank to Looped peptides [2]: 0.7; Binding of Control serum Blood-bank to linear peptides [2]: 0.7; Binding of Control serum LUMC to linear peptides [2]: 0.6; Binding of Control serum LUMC to looped peptides [2]: 0.8
PAADMDDFSRQLQNS | 0.3 | 0.3 | 0.2 | 0.1 | 0.2 | 0.3 | 0.6 | 1.1 | 0.8 | 0.6 | 0.7 | 0.3 | 0.6 | 0.3 | 0.3 | 0.5 | 0.2 | 0.3 | 0.1 | 0.2 | Binding of serum SARS-green to looped/cyclic peptides of protein N of SARS-CoV Urbani [1]: 0.3; Binding of serum SARS-yellow to looped/cyclic peptides of protein N of SARS-CoV Urbani [1]: 0.3; Control Serum Blood-Bank Looped peptides [2]: 0.3; Control serum Blood-bank linear peptides [2]: 0.8; Control serum LUMC linear peptides [2]: 0.8; Control serum LUMC looped peptides [2]: 0.3
QPLPQRQKKQPTVTL | 0.2 | – | 0.2 | – | 0.3 | – | 0.4 | – | 0.6 | – | 0.6 | – | 1.3 | – | 0.2 | 1.3 | 0.1 | 0.7 | 0.1 | 0.3 | Recognition of the peptide by sera of SARS-CoV infected individuals, and form (linear, looped/cyclic) in which it is recognized [1]: recognized in looped/cyclic form; Control Serum Blood-Bank Looped peptides [2]: 1.0; Control serum Blood-bank linear peptides [2]: 0.6; Control serum LUMC linear peptides [2]: 0.5; Control serum LUMC looped peptides [2]: 0.9
IGTRNPNNNAATVLQ | 0.3 | 0.4 | 0.1 | 0.3 | 0.4 | 0.7 | 0.2 | 0.4 | 0.7 | 0.9 | 0.8 | 0.8 | 0.5 | 0.6 | 0.5 | 0.6 | 0.1 | 0.4 | 0.1 | 0.3 | Binding of serum SARS-green to looped/cyclic peptides of protein N of SARS-CoV Urbani [1]: 0.7; Binding of serum SARS-yellow to looped/cyclic peptides of protein N of SARS-CoV Urbani [1]: 0.5; Binding of Control Serum Blood-Bank to Looped peptides [2]: 0.9; Binding of Control serum Blood-bank to linear peptides [2]: 0.8; Binding of Control serum LUMC to linear peptides [2]: 0.9; Binding of Control serum LUMC to looped peptides [2]: 0.8
